Experimental data: ChEMBL document CHEMBL4811298, “Discovery of novel class of histone deacetylase inhibitors as potential anticancer agents” (Bioorg Med Chem, 2021)

Species: Homo sapiens
Experiment: Selectivity ratio of IC50 for inhibition of N-terminal GST-tagged human recombinant full length HDAC5 expressed in baculovirus-infected Sf9 cells to IC50 for inhibition of C-terminal FLAG/His-tagged human recombinant HDAC1 (1 to 482 residues) expressed in baculovirus-infected Sf9 cells

Compound: N=C(NO)c1ccc2nc(-c3cccc(-c4cn5ccccc5n4)c3)[nH]c2c1
- Ratio IC50: > 44
